Test results as given in patent publication US10213429B2, “Imidazo-pyrazinyl derivatives useful as soluble guanylate cyclase activators” (Merck Sharp & Dohme Corp., priority 2015, dated 2019).

Target: T1, sGC α1/β1 heterodimer (Homo sapiens, UniProt Q02108+Q02153)
T1 construct: expressed in transfected cells; host or cells: CHO-K1 (clone #7, CHO-K1/sGC)
T1 sequence (Q02108 1-690): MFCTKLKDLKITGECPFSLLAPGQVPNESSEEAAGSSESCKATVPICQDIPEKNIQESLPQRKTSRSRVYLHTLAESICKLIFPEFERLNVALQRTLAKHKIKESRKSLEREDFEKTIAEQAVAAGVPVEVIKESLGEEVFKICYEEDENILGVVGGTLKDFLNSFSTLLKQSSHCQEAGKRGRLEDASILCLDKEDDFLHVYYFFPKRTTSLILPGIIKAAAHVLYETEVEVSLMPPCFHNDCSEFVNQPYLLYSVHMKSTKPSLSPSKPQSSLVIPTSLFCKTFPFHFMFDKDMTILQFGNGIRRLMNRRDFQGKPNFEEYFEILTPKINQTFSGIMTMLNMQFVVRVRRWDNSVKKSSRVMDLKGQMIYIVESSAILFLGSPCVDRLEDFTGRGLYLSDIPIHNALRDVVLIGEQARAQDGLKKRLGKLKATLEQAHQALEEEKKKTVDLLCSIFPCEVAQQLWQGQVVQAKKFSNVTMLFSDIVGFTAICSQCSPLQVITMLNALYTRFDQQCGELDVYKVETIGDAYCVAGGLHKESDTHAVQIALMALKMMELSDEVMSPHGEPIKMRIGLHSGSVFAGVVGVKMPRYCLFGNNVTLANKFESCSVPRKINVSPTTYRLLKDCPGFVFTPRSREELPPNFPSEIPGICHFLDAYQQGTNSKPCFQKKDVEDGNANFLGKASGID
T1 sequence (Q02153 1-619): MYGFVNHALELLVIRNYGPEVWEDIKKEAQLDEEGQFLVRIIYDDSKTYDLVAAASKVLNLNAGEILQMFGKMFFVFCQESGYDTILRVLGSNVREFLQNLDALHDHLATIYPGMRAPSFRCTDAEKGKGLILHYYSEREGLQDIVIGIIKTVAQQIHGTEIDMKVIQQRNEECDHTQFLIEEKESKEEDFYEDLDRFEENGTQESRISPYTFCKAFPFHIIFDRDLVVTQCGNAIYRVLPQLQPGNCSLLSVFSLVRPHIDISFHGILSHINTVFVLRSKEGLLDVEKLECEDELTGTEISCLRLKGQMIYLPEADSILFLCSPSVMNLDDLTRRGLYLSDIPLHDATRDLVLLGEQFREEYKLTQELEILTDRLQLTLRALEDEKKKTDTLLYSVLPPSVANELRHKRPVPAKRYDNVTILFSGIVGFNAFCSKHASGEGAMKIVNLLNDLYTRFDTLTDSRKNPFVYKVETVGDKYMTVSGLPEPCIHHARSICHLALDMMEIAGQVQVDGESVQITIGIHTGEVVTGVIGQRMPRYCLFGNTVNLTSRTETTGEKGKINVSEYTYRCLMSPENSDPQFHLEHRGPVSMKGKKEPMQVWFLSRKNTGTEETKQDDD
Experiment: Cell-Based sGC Functional Assay (CASA Assay), cGMP by HTRF in CHO-K1/sGC cells
Conditions: for Emax: CHO-K1, percent activation relative to maximum cGMP production of Compound A (= 100%), read-out: % Act.; for EC50: cGMP production, 1 hr at 37° C., 4P fit, presence or absence of 1 μM DETA-NO not given, read-out: IP (nM) (inflection point); for % Act.: percent activation relative to maximum cGMP production of Compound A (= 100%)
From the text: Biological Assay 1: Cell-Based sGC Functional Assay (CASA Assay)
sGC is a heme-containing enzyme that converts GTP to secondary messenger cGMP. Increases in cGMP levels affect several physiological processes including vasorelaxation through multiple downstream pathways. […] Heme-dependent activators (HDAs) preferentially activate sGC containing a ferrous heme group. To determine the effect of sGC activators on enzyme activity, the CASA assay was developed to monitor the generation of cGMP in a cell line that stably expresses the heterodimeric sGC protein.
A CHO-K1 cell line stably expressing the sGC α1/β1 heterodimer was generated using a standard transfection protocol. CHO-K1 cells were transfected with plasmids pIREShyghsGCα1 and pIRESneo-hsGCβ1 simultaneously using FUGENE reagent. Clones that stably express both subunits were selected with hygromycin and neomycin for ˜2 weeks. Clone #7 was chosen for the assay and was designated CHO-K1/sGC. CHO-K1/sGC cells were maintained in F-K12 medium containing 10% heat-inactivated Fetal Bovine Serum (FBS), 100 μg/mL penicillin/streptomycin, 0.5 mg/mL hygromycin and 0.25 mg/mL G418. The cells were then cryopreserved in LN2. On the day of the assay, cells were thawed and resuspended in EBSS Assay Buffer (Sigma, E3024) supplemented with 5 mM MgCl2, 10 mM HEPES (4-(2-hydroxyethyl)piperazine-1-ethanesulfonic acid) and 0.05% BSA (bovine serum albumin) (EAB) and cell density was then adjusted to 4×10^5/mL with EAB. IBMX (3-isobutyl-1-methylxanthin, 0.5 mM) was added to inhibit degradation of cGMP. Compounds were diluted from DMSO stock solutions and added to the assay at a final DMSO concentration of 2.5%. Cells were incubated with compounds in the presence and absence of 1 μM of Diethylenetriamine/nitric oxide adduct (DETA-NO; Sigma, 17018) for 1 hr at 37° C. At the end of the incubation period, the reaction was terminated and the cells were lysed with the detection reagents from Cisbio Kits. The level of intracellular cGMP was determined using an HTRF-based assay kit (CisBio, 62GM2PEC), which detects the displacement of a fluorescence labeled cGMP from its specific antibody. The cGMP produced by test compounds was directly compared to the maximum cGMP production (this value was set to equal 100% activation.) of the published sGC-HDA Compound A:
[drawing 175] (Example 1 in WO 2010/065275, published Jun. 10, 2010). The test compounds' activities were then expressed as a percentage of Compound A, the standard in every experiment. This percent activation was calculated either in the presence or absence of DETA-NO which was then plotted. IP and maximum fold induction was derived using ADA analysis software for 4P fit.
The compounds in the Examples of the instant invention had inflection points (IP) less than or equal to 10 μM and most less than or equal to about 1 μM.

Emax [%] | EC50 [nM] | % Act. [%] | SMILES
109 | 234 |  | CCCCc1nc(-c2nc(O)c3c(n2)NC(=O)C3(C)c2ccc(F)cn2)cn2ccnc12 (centres unmarked) [Example 83B, 2-(8-butylimidazo[1,2-a]pyrazin-6-yl)-5-(5-fluoropyridin-2-yl)-4-hydroxy-5-methyl-5H-pyrrolo[2,3-d]pyrimidin-6(7H)-one]
107 | 10 |  | CC1(c2ccc(F)cc2)C(=O)Nc2nc(-c3cn4ccnc4c(CC4CCC4)n3)ncc21 (centres unmarked) [Example 63A, 2-(8-(cyclobutylmethyl)imidazo[1,2-a]pyrazin-6-yl)-5-(4-fluorophenyl)-5-methyl-5H-pyrrolo[2,3-d]pyrimidin-6(7H)-one]
139 | 462 |  | O=C1Nc2nc(-c3cn4ccnc4c(CCCC(F)(F)F)n3)nc(O)c2C1(c1ccc(F)c(F)c1)C1CC1 (centres unmarked) [Example 20A, 5-cyclopropyl-5-(3,4-difluorophenyl)-4-hydroxy-2-(8-(4,4,4-trifluorobutyl)imidazo[1,2-a]pyrazin-6-yl)-5H-pyrrolo[2,3-d]pyrimidin-6(7H)-one]
 | 179 | 169 | O=C1Nc2nc(-c3cn4ccnc4c(Cc4ccccc4F)n3)ncc2C1(C(=O)NC1CC1)C1CC1 (single isomer, unassigned) [Example 70A, N,5-dicyclopropyl-2-(8-(2-fluorobenzyl)imidazo[1,2-a]pyrazin-6-yl)-6-oxo-6,7-dihydro-5H-pyrrolo[2,3-d]pyrimidine-5-carboxamide]
153 | 240 |  | CCCCc1nc(-c2nc(O)c3c(n2)NC(=O)C3(c2ccc(Cl)cn2)C2CC2)cn2ccnc12 (centres unmarked) [Example 25A, 2-(8-butylimidazo[1,2-a]pyrazin-6-yl)-5-(5-chloropyridin-2-yl)-5-cyclopropyl-4-hydroxy-5H-pyrrolo[2,3-d]pyrimidin-6(7H)-one]
83 | 282 |  | CCCOc1nc(-c2ncc3c(n2)NC(=O)C3(C)c2ccc(F)cc2)cn2ccnc12 (centres unmarked) [Example 92A, 5-(4-Fluorophenyl)-5-methyl-2-(8-propoxyimidazo[1,2-a]pyrazin-6-yl)-5H-pyrrolo[2,3-d]pyrimidin-6(7H)-one]
128 | 107 |  | CCCCc1nc(-c2nc(O)c3c(n2)NC(=O)C3(c2ccc(F)c(F)c2)C2CC2)cn2ccnc12 (centres unmarked) [Example 19A, 2-(8-butylimidazo[1,2-a]pyrazin-6-yl)-5-cyclopropyl-5-(3,4-difluorophenyl)-4-hydroxy-5H-pyrrolo[2,3-d]pyrimidin-6(7H)-one]
165 | 124 |  | CC1(c2ccc(Cl)cc2)C(=O)Nc2nc(-c3cn4ccnc4c(CCC(F)(F)F)n3)nc(C3CC3)c21 (centres unmarked) [Example 74A, 5-(4-chlorophenyl)-4-cyclopropyl-5-methyl-2-(8-(3,3,3-trifluoropropyl)imidazo[1,2-a]pyrazin-6-yl)-5H-pyrrolo[2,3-d]pyrimidin-6(7H)-one]
90 | 981 |  | CCCc1nc(-c2ncc3c(n2)NC(=O)C3(C)c2ccc(Cl)cn2)cn2ccnc12 (centres unmarked) [Example 57A, 5-(5-chloropyridin-2-yl)-5-methyl-2-(8-propylimidazo[1,2-a]pyrazin-6-yl)-5H-pyrrolo[2,3-d]pyrimidin-6(7H)-one]
130 | 316 |  | CC1(c2ccc(Cl)cn2)C(=O)Nc2nc(-c3cn4c(N)cnc4c(CCC(F)(F)C(F)(F)F)n3)ncc21 (centres unmarked) [Example 87A, 2-(3-Amino-8-(3,3,4,4,4-pentafluorobutyl)imidazo[1,2-a]pyrazin-6-yl)-5-(5-chloropyridin-2-yl)-5-methyl-5H-pyrrolo[2,3-d]pyrimidin-6(7H)-one]
122 | 115 |  | CCCCc1nc(-c2nc(O)c3c(n2)NC(=O)C3(c2ccc(Cl)c(F)c2)C2CC2)cn2ccnc12 (centres unmarked) [Example 21A, 2-(8-butylimidazo[1,2-a]pyrazin-6-yl)-5-(4-chloro-3-fluorophenyl)-5-cyclopropyl-4-hydroxy-5H-pyrrolo[2,3-d]pyrimidin-6(7H)-one]
111 | 45 |  | CC1(c2ccc(Cl)cn2)C(=O)Nc2nc(-c3cn4ccnc4c(Cc4ccc(F)cc4)n3)nc(O)c21 (centres unmarked) [Example 16A, 5-(5-chloropyridin-2-yl)-2-(8-(4-fluorobenzyl)imidazo[1,2-a]pyrazin-6-yl)-4-hydroxy-5-methyl-5H-pyrrolo[2,3-d]pyrimidin-6(7H)-one]
 | 226 | 118 | CC1(C(=O)NC2CC2)C(=O)Nc2nc(-c3cn4ccnc4c(Cc4ccccc4F)n3)ncc21 (single isomer, unassigned) [Example 69B, N-cyclopropyl-2-(8-(2-fluorobenzyl)imidazo[1,2-a]pyrazin-6-yl)-5-methyl-6-oxo-6,7-dihydro-5H-pyrrolo[2,3-d]pyrimidine-5-carboxamide]
179 | 81 |  | CCCCc1nc(-c2nc3c(c(C4CC4)n2)C(C)(c2ccc(F)cn2)C(=O)N3)cn2ccnc12 (centres unmarked) [Example 72B, 2-(8-butylimidazo[1,2-a]pyrazin-6-yl)-4-cyclopropyl-5-(5-fluoropyridin-2-yl)-5-methyl-5H-pyrrolo[2,3-d]pyrimidin-6(7H)-one]
138 | 254 |  | O=C1Nc2nc(-c3cn4ccnc4c(Cc4ccc(F)cc4)n3)ncc2C1(C(=O)NC1CC1)C1CC1 (single isomer, unassigned) [Example 68A, N,5-dicyclopropyl-2-(8-(4-fluorobenzyl)imidazo[1,2-a]pyrazin-6-yl)-6-oxo-6,7-dihydro-5H-pyrrolo[2,3-d]pyrimidine-5-carboxamide]
150 | 81 |  | CC1(c2ccc(Cl)cn2)C(=O)Nc2nc(-c3cn4ccnc4c(CC4CCC4)n3)ncc21 (centres unmarked) [Example 58A, 5-(5-chloropyridin-2-yl)-2-(8-(cyclobutylmethyl)imidazo[1,2-a]pyrazin-6-yl)-5-methyl-5H-pyrrolo[2,3-d]pyrimidin-6(7H)-one]
